Target: T1, Hormone-sensitive lipase (HSL) (Homo sapiens, UniProt Q05469)
T1 sequence (Q05469 1-1076): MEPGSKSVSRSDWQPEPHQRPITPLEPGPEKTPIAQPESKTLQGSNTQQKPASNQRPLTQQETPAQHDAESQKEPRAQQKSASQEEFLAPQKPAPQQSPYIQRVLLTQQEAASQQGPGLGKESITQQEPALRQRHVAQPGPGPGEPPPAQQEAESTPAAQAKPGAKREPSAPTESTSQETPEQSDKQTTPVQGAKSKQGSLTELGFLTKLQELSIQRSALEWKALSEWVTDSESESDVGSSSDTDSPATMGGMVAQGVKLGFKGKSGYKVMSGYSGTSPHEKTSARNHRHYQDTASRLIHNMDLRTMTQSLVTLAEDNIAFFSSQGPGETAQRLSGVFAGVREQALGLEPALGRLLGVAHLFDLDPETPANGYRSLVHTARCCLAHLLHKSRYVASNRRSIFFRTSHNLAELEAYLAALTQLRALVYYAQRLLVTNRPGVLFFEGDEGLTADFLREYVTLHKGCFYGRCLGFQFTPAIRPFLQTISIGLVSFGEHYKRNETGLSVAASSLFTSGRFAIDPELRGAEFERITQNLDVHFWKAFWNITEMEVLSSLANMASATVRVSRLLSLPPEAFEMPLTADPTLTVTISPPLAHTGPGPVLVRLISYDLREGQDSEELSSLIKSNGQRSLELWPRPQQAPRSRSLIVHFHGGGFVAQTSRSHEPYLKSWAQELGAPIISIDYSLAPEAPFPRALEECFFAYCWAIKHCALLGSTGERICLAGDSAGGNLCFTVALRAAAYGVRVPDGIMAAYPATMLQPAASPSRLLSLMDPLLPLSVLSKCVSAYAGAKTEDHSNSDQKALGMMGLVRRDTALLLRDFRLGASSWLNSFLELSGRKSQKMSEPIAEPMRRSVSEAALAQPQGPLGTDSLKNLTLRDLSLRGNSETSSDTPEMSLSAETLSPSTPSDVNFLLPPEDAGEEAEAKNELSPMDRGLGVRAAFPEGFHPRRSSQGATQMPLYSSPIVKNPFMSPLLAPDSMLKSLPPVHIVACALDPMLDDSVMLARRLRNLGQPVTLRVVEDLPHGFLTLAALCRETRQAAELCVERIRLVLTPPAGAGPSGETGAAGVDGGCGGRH
Assay: selectivity: hormone-sensitive lipase assay
Type: biochemical
Details: 50 µM
Procedure: Hormone-sensitive lipase (HSL) and lipoprotein lipase (LPL) were measured using a radiolabeled triolein droplet emulsion as described in "Vertesy et al., (2002) Journal Antibiotics 55:480-494". Pancreatic lipase (PL) was determined by incubation of 0.25 mmol tributyrin in 2 ml of 5 mM Tris/HCl (pH 6.5), 6 mM sodium taurodeoxycholate, 150 mM NaCl, 1 mM CaCl2 with porcine PL and colipase in the same buffer using a recording pH stat (stirring at 1000 rpm at 25°C) with the pH adjusted to 6.5. PC-PLC was assayed by incubation of 0.2 ml of 10 mM dipalmitoyllecithin, 0.1 ml of 10 mM SDC and 0.1 ml of 0.03 M CaCl2 with bacterial PC-PLC (in 50 mM Tris/HCl, pH 7.5, 0.1 % BSA) for 10 min at 37°C. The reaction was terminated by addition of 0.1 ml of 50 % TCA and subsequently of 2.5 ml of […]. After centrifugation (1500xg, 15 min), 0.2-ml portions of the upper methanol/water phase (~ 1.33 ml) was removed, supplemented with 0.5 ml of 60 % HClO4, then heated at 170°C for 1 h and finally analyzed for inorganic phosphate. Mammalian PI-PLC was measured by incubation of 0.1 ml of 10 mM PI, 0.1 ml of 0.8 % sodium deoxycholate, 0.1 % BSA, 0.2 ml of 100 mM sodium borate (pH 7.5) and rat liver PI-PLC for 20 min at 37°C. The reaction was terminated and further processed as described for the PC-PLC. […] Radioactive phosphatidic acid was detected by phosphorimaging. […]

For CCCCCCCCCCCCP1(=O)O[C@@H]2[C@H](O)[C@@H](O)[C@H](O)[C@@H](O)[C@@H]2O1 (mixture of isomers) [GPI-2350, myo-inositol-1,2-cyclo-dodecylphosphonic acid], the “effect on lipase activity” value was “not significantly affected”.

— patent publication EP1566447A1, “Glimepiride- and insulin-induced glycosylphosphatidylinositol-specific phospholipase C regulation” (priority 2004, dated 2005)
